Reference: patent publication US20070203325A1, “Integrase-dirived HIV-inhibiting agents” (priority 2006, published 2007)

What was measured:
HIV-1 NL4.3-Nef+/GFP+ [1] = assay: Infection of HeLa-β-Gal-CD4/CCR5 cells by virus from producer cells expressing the IN C-terminal domain, MAGI assay; assay type: cell-based; conditions: viruses produced by 293T cells expressing the protein, 48 h post-infection
HIV-1 NL4.3-Nef+/GFP+ [2] = assay: Infection of MT4 cells by virus from producer cells expressing the IN C-terminal domain, GFP-positive cell count; assay type: cell-based; conditions: viruses produced by 293T cells expressing the protein, 48 h post-infection

Substance: IN C-terminal domain: T7-tagged HIV-1 integrase C-terminal domain 205-288 (SEQ ID NO:2) expressed in viral producer cells
- virus infection of HeLa-β-Gal-CD4/CCR5 cells (HIV-1 NL4.3-Nef+/GFP+ [1]): significantly impaired
- virus infection of MT4 cells (HIV-1 NL4.3-Nef+/GFP+ [2]): significantly impaired
